Results taken from US6551582B2, “Deodorant composition” (Sumitomo Chemical Company, Limited, priority 2001, dated 2003).

Assay: Test Example 1: deodorant effect of sprayed liquid formulations against ammonia gas in a flask
Conditions: after 30 minutes, about 20° C.
Method: Into a glass Erlenmeyer flask (1L-volume), 1 mL of 1.8% aqueous solution of ammonia was placed at room temperature (about 20° C.). After the flask was sealed with a rubber stopper and shaken to be filled with ammonia gas, the concentration of ammonia was measured with a gas detector tube (No. 3HM, Gastec Corporation).
Next, 1 mL of each formulation obtained in Production example 1 was sprayed into the flask. The concentration of ammonia was measured with a gas detector tube (No. 3HM, Gastec Corporation) after 30 minutes. A control solution (1 mL) of a mixed solvent without the present deodorant compound was added into an Erlenmeyer flask (1 L-volume) containing ammonia gas, and then the […] of ammonia was measured with the same method after 30 minutes.
Dehydroacetic acid was formulated in the same manner as Production example 1, and then comparative test was carried out by the same method.
The formulations obtained in Production example 2 and 3 were provided to the same test.
Deodorant rates were calculated by formula 1. [formula]

dehydroacetic acid
Deodorant rate (%) Production example 1 (1 mL formulation of Production example 1 (5 parts compound, 80 parts ethanol, 15 parts water) sprayed): 20%
Deodorant rate (%) Production example 2 (1 mL formulation of Production example 2 (5 parts compound, 80 parts isopropyl alcohol, 15 parts water) sprayed): 25%
Deodorant rate (%) Production example 3 (1 mL formulation of Production example 3 (5 parts compound, 80 parts glycerin, 15 parts water) sprayed): 25%
